Measured values published in ChEMBL document CHEMBL1157005, “A new structural class of S-adenosylhomocysteine hydrolase inhibitors” (Bioorg Med Chem, 2009).
pIC50: −log10 of the molar value.

Assays:
Adenosylhomocysteinase [1] = molecular target: T1, Adenosylhomocysteinase (Homo sapiens, UniProt P23526); test: Inhibition of S-adenosyl-L-homocysteine hydrolase after 10 mins by scintillation counting
Target sequence in this assay (P23526 whole entry): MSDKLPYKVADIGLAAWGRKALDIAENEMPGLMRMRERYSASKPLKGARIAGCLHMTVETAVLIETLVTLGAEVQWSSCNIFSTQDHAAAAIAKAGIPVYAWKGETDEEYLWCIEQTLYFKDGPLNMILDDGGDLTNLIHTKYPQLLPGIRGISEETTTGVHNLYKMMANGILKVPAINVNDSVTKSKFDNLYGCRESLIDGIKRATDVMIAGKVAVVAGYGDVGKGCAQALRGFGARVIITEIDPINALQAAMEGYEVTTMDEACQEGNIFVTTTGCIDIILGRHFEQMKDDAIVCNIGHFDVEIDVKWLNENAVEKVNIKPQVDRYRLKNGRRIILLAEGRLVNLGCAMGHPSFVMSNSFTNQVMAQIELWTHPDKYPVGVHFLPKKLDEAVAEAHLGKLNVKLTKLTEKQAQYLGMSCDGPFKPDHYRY

Adenosylhomocysteinase [2] = molecular target: T1, Adenosylhomocysteinase; test: Inhibition of S-adenosyl-L-homocysteine hydrolase at 50 uM after 10 mins by scintillation counting
Target sequence in this assay (P23526 2-432 limits assumed): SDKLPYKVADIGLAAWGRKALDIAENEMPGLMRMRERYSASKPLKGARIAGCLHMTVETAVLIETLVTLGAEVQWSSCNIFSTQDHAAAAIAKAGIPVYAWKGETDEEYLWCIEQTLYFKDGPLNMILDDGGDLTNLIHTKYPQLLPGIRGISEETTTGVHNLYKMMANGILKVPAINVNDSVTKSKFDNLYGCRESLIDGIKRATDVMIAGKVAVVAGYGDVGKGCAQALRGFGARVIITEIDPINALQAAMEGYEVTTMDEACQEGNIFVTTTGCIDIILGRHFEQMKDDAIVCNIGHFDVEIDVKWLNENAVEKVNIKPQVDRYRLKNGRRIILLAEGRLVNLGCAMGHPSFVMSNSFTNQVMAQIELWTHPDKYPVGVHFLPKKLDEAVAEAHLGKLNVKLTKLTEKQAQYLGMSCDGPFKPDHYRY

Adenosylhomocysteinase [3] = molecular target: T1, Adenosylhomocysteinase; test: Inhibition of S-adenosyl-L-homocysteine hydrolase at 2 uM after 10 mins by scintillation counting
Target sequence in this assay (P23526 2-432 limits assumed): as above

Adenosylhomocysteinase [4] = molecular target: T2, Adenosylhomocysteinase (Rattus norvegicus, UniProt P10760); test: Inhibition of S-adenosyl-L-homocysteine hydrolase in intact rat hepatocytes; type: cell-based, Hepatocyte
T2 sequence (P10760 whole entry): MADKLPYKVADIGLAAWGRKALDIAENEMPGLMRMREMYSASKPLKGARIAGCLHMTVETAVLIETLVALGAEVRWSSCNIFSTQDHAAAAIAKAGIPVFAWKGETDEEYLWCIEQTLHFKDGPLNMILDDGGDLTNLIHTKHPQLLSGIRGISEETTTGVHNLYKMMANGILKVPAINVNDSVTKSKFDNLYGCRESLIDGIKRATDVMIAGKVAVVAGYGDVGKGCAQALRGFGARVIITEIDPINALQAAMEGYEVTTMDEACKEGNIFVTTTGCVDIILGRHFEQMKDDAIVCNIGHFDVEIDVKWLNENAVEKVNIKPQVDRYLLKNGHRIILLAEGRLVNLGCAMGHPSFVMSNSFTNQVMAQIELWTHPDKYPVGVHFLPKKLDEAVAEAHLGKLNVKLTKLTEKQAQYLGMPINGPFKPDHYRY

Adenosylhomocysteinase [5] = molecular target: Adenosylhomocysteinase (Plasmodium falciparum 3D7, UniProt P50250); test: Inhibition of Plasmodium falciparum S-adenosyl-homocysteine hydrolase
Adenosylhomocysteinase (Plasmodium falciparum 3D7, UniProt P50250), sequence (P50250 whole entry): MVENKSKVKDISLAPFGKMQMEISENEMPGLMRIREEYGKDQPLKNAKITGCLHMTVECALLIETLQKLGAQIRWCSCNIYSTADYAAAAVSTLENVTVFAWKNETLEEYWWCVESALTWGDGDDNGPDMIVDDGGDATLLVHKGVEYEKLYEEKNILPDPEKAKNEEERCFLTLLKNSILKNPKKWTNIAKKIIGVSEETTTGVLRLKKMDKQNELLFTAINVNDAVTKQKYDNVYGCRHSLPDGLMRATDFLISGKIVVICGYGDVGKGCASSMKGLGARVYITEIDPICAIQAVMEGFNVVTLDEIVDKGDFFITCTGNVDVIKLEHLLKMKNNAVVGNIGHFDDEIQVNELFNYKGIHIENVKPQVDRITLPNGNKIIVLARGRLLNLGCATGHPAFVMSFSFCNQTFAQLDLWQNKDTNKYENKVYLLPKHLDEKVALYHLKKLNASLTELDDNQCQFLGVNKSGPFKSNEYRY

Structure (SMILES)	pIC50 (Adenosylhomocysteinase [1])	inhibition (Adenosylhomocysteinase [2]) [%]	inhibition (Adenosylhomocysteinase [3]) [%]	further results
Nc1ncnc2c1ncn2Cc1cc(OCC2CCCCC2)cc(O)c1O	6.40			
C=C1CCC[C@H]2[C@](C)(CC3=C(O)C(=O)C=C(OC)C3=O)[C@@H](C)CC[C@]12C [ILIMAQUINONE]	4.40			
Nc1ncnc2c1ncn2C[C@@H](O)[C@@H](O)C(=O)O [ERITADENINE]				pIC50 (Adenosylhomocysteinase [4]): 7.52
Nc1ncnc2c1ncn2[C@@H]1C[C@H](O)[C@@H](O)[C@H]1O [NORARISTEROMYCIN]				pIC50 (Adenosylhomocysteinase [5]): 5.96
COC1=CC(=O)C(O)=C(C[C@@]2(C)[C@@H]3CCC[C@H](COC(=O)CCCCCNC(=O)OC(C)(C)C)[C@@]3(C)CC[C@@H]2C)C1=O	> 4.70			
C=C1[C@H](OC(=O)CCCCCNC(=O)OC(C)(C)C)CC[C@H]2[C@](C)(CC3=C(Cl)C(=O)C=C(OC)C3=O)[C@@H](C)CC[C@]12C	< 3.60			

Now from value to compound, other results behind:

pIC50 (Adenosylhomocysteinase [1])	inhibition (Adenosylhomocysteinase [2]) [%]	inhibition (Adenosylhomocysteinase [3]) [%]	Structure (SMILES)	further results
	47	12	CCCCCOc1cc(Cn2cnc3c(N)ncnc32)cc(O)c1O	
	70	12	Nc1ncnc2c1ncn2Cc1cc(O)c(O)c(OCc2ccccc2)c1	
	74	17	Nc1ncnc2c1ncn2Cc1cc(O)c(O)c(OCC2CCCCC2)c1	
